# Patent US9505741B2, “Prolylhydroxylase inhibitors and methods of use” (CORNELL UNIVERSITY, priority 2010, dated 2016)
# Columns and labels:
# [1] = test system: HIF ODD-luc reporter (HIF PHD-controlled stability); test: HTS with cell-based HIF ODD-luciferase reporter (SH-SY5Y-ODD-luc cells); set-up: species or system human; details: three hours; for activation at 10 µM: Homo sapiens, 3 h, read-out: reporter activation (%) relative to ciclopirox (100%) and DMSO (0%)
# Excerpt: For HTS, a cell-based reporter system was employed. The cell-based reporter system was generated by fusing HIF-1a oxygen degradable domain (ODD) to luciferase (Safran M. et al., PNAS, 2006, 103, 105-110), which represents a cell-based capture assay monitored by the consumption of the luciferase-labeled HIF substrate under the conditions more physiological than in vitro test tubes. In accord with their structure activity relationship in reporter assay, the best “hits” stabilize HIF1, upregulate known HIF target genes in a human neuronal line, and exert neuroprotective effects in established model of oxidative stress in cortical neurons.
# The reporter cell lines constitutively expressing ODD-luc (human neuroblastoma, SH-SY5Y) were stable for more than one year without significant change in their response to canonical PHD inhibitors such as DFO, dihydroxybenzoate (DHB), dimethyloxalylglycine (DMOG), and ciclopirox (FIG. 1B). In order to verify the specificity of luciferase changes as an assay for PHD activity, several control lines were developed: the control line expressing ODD-luc with proline 564 and 567 mutated to Ala generates luciferase fusion that cannot be degraded and experimentally identifies a ceiling level of ODD-luc protein attainable in these cells. The background signal for the wild-type HIF ODD-luc line (PYIP) corresponds to approximately 5-6% of the ODD-luc levels in the control line AYIA (double mutant P564A/P567A line) (FIG. 2). Treatment with 10 μM ciclopirox results in a 10-fold increase of a background signal for the wild-type ODD-luc reporter (PYIP line), i.e. reaches almost 50% of the threshold value (FIG. 2).
# The assay was optimized for HTS format to provide Z values above 0.7. SH-SY5Y-ODD-luc cells were plated into 384—well white flat-bottom plates at 7,000 cell/well in 30 μl of serum and incubated overnight at 37° C., 5% CO2. The next day, compounds were added to a final concentration of 10 μM, plates were incubated for three hours at 37° C., and luciferase activity was measured using SteadyGlo™ reagent (Promega). Each plate had two internal standards, ciclopirox (100%), and DMSO (0%). The reporter activation (%) was calculated as a ratio (L−LDMSO)/(Lciclopirox−LDMSO). Hits were defined as those >25%. HTS of 85,000 compounds was performed at Rockefeller HTS Resource Center. 295 hits from the initial screen have been tested in quadruplicate, 160 were confirmed. Classification into 10 structural clusters has been done manually; 25 hits were singletons.
# [2] = test system: HIF ODD-luc reporter (HIF PHD-controlled stability); test: ODD-luc reporter, concentration titration and kinetics of reporter activation (extended SAR); type: cell-based, human; details: for Ki: linear plot 1/(K0−v) vs inhibitor concentration, read-out: apparent inhibition constant from time course of reporter activation
# Excerpt: The HIF ODD-luciferase reporter system is controlled by the rate of PHD catalyzed reaction, and from an enzyme kinetics point of view, it is a “capture assay” monitored by the consumption of a substrate, the heterologously expressed HIF ODDluciferase fusion protein. In the kinetic regime, i.e. monitoring the time-course of luminescence changes (FIG. 3A), the ODD-luc reporter system permits quantitative characterization of promoter capacity (Ko, rate of fusion protein generation), enzyme activity, and inhibition constant determination.
# The rate of fusion accumulation equals the rate of its production (Ko) minus the rate of the rate-limiting step, controlled by HIF PHDs, which obeys Michaelis-Menten kinetics, as follows: v=d[ODDluc]/dt=K0−k1[PHD][ODDluc]/{Km(1+[I]/K1)+[ODDluc]} (Eq.1)
# The background luminescence signal calibrated with recombinant luciferase allows an estimation of the steady-state concentration of the ODD-luc fusion protein. Under the conditions used the steady-state value of 60 rlu (relative light units) corresponds to 1 pg luciferase protein; dividing this number by the total cell volume taken as a single cell volume (233μ^3) multiplied by 30,000 cells/well density (number of cells in a 96 well dish), the ODD-luc fusion protein steady-state concentration is found to be equal to 2.3 nM, which is well below all reported Km values for HIF1 (Dao, J. H., et al., Anal Biochem 384, 213-223 2009; Hewitson, K. S., et al., Methods Enzymol 435, 25-42 2007; Koivunen, P., et al., J Biol Chem 281, 28712-28720 2006; Tuckerman, J. R., et al., FEBS Lett 576, 145-150 2004. Therefore, it is preferable to work under nonsaturating conditions with respect to HIF substrate, i.e. optimal conditions for selecting inhibitors competitive against HIF substrate. Moreover, as compared to the in vitro assay, which uses a 19 amino acid peptide fragment surrounding the oxygen dependent domain (ODD), the instant ODD-luciferase construct contains 123 amino acid acids, and thus, more closely emulates the behavior of native HIF. The initial concentration of fusion can be considered much lower than Km, and thus, can be ignored in the rate equation: v=d[ODDluc]/dt=K0−k1[PHD][ODDluc]/Km(1+[I]/K1) (Eq.2)
# Knowing the capacity of the promoter, the inhibition constant can be determined, but not the inhibition type, from the initial rates of signal accumulation at varied fixed concentrations of potential inhibitor. The capacity of promoter, K0 can be determined under the conditions of total inhibition of PHD activity by means of complete iron deprivation achieved in the presence of high concentrations of ciclopirox, i.e. when the increase in the ciclopirox concentrations give no further increase in the rate of luciferase signal growth (FIG. 3B). […]
# [3] = Iron binding by calcein displacement from its iron complex; type: physicochemical
# Protocol: The iron chelation ability is determined by displacement of calcein from its complex with iron monitored by fluorescence (excitation 490 nm, emission 523 nm, cut-off 515 nm) on a Spectramax M5e platereader (Molecular Devices). The apparent binding constant for calcein (ca.50 nM) was determined from Fe titration curve for 1 μM calcein in 5 mM Tris-HCl buffer, pH 7.5. The ratio between the iron binding constant for calcein and a particular compound, i.e., KQ/KCa, was estimated by fitting the titration curve into the dependence of [Fe]o vs. Y, where Y═[Ca—Fe]/[Ca] is a ratio of calcein-bound Fe to free (fluorescent) calcein: [Fe]o=KCaY+[Ca]oY/(Y+1)+[Q]oY/(Y+KQ/KCa) (Eq.4)
# The association rate constant was determined as the second order rate constant for calcein displacement from its complex with iron (1 μM:1 μM) upon addition of an oxyquinoline (5-20 μM) calculated from the slope of a linear plot of the initial rate of calcein release vs. the concentration of oxyquinoline added. All experiments were performed in triplicates or more. All values are presented as mean±S.E.M.
SMILES,activation at 10 µM ([1]; SH-SY5Y-ODD-luc) [%],"reporter activation in HTS, in words ([1]; 10 μM)",also measured
"O=C(Nc1nnc(-c2cccc(Br)c2)s1)C1CCCN1 (stereo not drawn) [IV, N-[5-(3-bromophenyl)-[1,3,4]thiadiazol-2-yl]pyrrolidine-2-carboxamide]",35,–,–
"FC(F)(F)c1ccccc1-n1c(S)nnc1-c1nccc2ccccc12 [5-isoquinolin-1-yl-4-(2-trifluoromethyl-phenyl)-4H-[1,2,4]triazole-3-thiol]",–,close to that for the internal standard,–
O=C(C=C(O)c1ccccc1)c1ccccc1O [2′β-dihydroxychalcone],–,–,"fold reporter activation over background ([1]; 10 μM, SH-SY5Y-ODD-luc): 7.5 fold; reporter activation (%) relative to ciclopirox (100%) and DMSO (0%) ([1]; 10 μM, SH-SY5Y-ODD-luc): 71%"
"N[C@@H](Cc1ccc(O)c(O)c1)C(=O)O [L-Dopa, reference compound]",21,–,"fold reporter activation over background ([1]; 10 μM, SH-SY5Y-ODD-luc): 3 fold; IC50 ([2]; Homo sapiens, ODD-luc reporter): 15 µM"
"Oc1c(I)cc(Cl)c2cccnc12 [clioquinol, reference compound]",–,comparable,–
"S=C(Nc1ccccc1)Nc1nccs1 [III, 1-phenyl-3-(1,3-thiazol-2-yl)thiourea]",41,–,"fold reporter activation over background ([1]; 10 μM, SH-SY5Y-ODD-luc): five-fold"
"Oc1c(Br)cc(Br)c2cccnc12 [broxyquinoline, reference compound]",–,comparable,–
"Cc1cc(C2CCCCC2)n(O)c(=O)c1 [ciclopirox, reference compound]",–,–,"fold reporter activation over background ([1]; 10 μM, SH-SY5Y-ODD-luc): 10 fold"
"CC1=NN(c2ccccc2)C(=O)C1 [edaravone, reference compound]",–,no reporter activation,–
"N[C@H](Cc1ccc(O)c(O)c1)C(=O)O [D-dopa, reference compound]",–,not,–
O=C(CCl)c1ccc(O)c2ncccc12 [chloroacetoquinoline],–,comparable to 8-hydroxyquinoline itself,–
"COc1ccc(-c2nnc(NC(=O)C(N)Cc3ccccc3)s2)cc1 (stereo not drawn) [2-amino-N-(5-(4-methoxy-phenyl)-[1,3,4]thiadiazol-2-yl)-3-phenylpropanamide]",–,no reporter activation at all,–
"NNc1nc(-c2ccccc2)cc(-c2ccccc2)n1 [II, 2-hydrazinyl-4,6-diphenylpyrimidine]",64,–,"fold reporter activation over background ([1]; 10 μM, SH-SY5Y-ODD-luc): 6.7 fold; iron binding / chelation ability in solution, in words [3]: no iron chelation properties in solution"
"O=C1/C(=N\Nc2nc3ccccc3s2)C(c2ccccc2)=NN1c1ccccc1 [(Z)-4-(benzo[d]thiazol-2-ylhydrazono)-1,3-diphenyl-1H-pyrazol-5(4H)-one]",70,–,–
"O=C1/C(=C\c2ccc(O)c(O)c2)SC(=S)N1c1ccccc1 [VI, (E)-5-(3,4-dihydroxybenzylidene)-3-phenyl-2-thioxothiazolidin-4-one]",38,–,–
"COC(=O)CNC(=O)C(=O)OC [DMOG, dimethyloxalylglycine]",–,–,Ki [2]: 1300 µM
"Oc1cccc(CN2CCCn3cccc3C2c2ccc(F)cc2)c1O (stereo not drawn) [3-((1-(4-fluorophenyl)-4,5-dihydro-1H-pyrrolo[1,2-a][1,4]diazepin-2(3H)-yl)methyl)benzene-1,2-diol]",40,–,–
"NCCc1ccc(O)c(O)c1 [dopamine, reference compound]",–,not,–
"CCOC(=O)c1ccc(O)c(O)c1 [DHB, Ethyl-3,4-dihydroxybenzoate]",–,–,concentration at which the reporter is activated ([2]; FIG. 1B): > 50 µM; Ki [2]: 520 µM
"Oc1cccc(CN2CCN(CCOC(c3ccccc3)c3ccc(F)c(F)c3)CC2)c1O (stereo not drawn) [3-((4-(2-((3,4-difluorophenyl) (phenyl)methoxy)ethyl)piperazin-1-yl)methyl)benzene-1,2-diol]",60,–,–
"CCC(C)C(N)C(=O)Nc1nnc(-c2ccc(Br)cc2)s1 (stereo not drawn) [2-amino-N-(5-(4-bromophenyl)-[1,3,4]thiadiazol-2-yl)-3-methylpentanamide]",–,no reporter activation at all,–
"C[C@@](Cc1ccc(O)c(O)c1)(NN)C(=O)O [carbidopa, reference compound]",–,not,–
"O=C1/C(=N\Nc2nccs2)C(c2ccccc2)=NN1c1ccccc1 [I, (Z)-1,3-diphenyl-4-(thiazol-2-yl-hydrazono)-1H-pyrazol-5(4H)-one]",86,–,–
"CC(C)n1c(S)nnc1-c1nccc2ccccc12 [V, 4-isopropyl-5-isoquinolin-1-yl-4H-[1,2,4]triazole-3-thiol]",90,close to that for the internal standard,–
"Oc1c(Cl)cc(Cl)c2cccnc12 [chloroxine, reference compound]",–,comparable,–
